According to publication PMC12396409, “Screening and hit evaluation of a microbial metabolite library against the pathogenic Plasmodium falciparum and Toxoplasma gondii parasites” (International Journal for Parasitology: Drugs and Drug …, 2025):
Like-named read-outs stand apart in the source and are kept apart here.

Experiments:
[1] = system: P. falciparum 3D7 parasites; assay: P. falciparum growth inhibition assay, 2-cycle (120 h treatment), delayed-death screen and dose-response; type: cell-based, Plasmodium falciparum
[2] = system: P. falciparum 3D7 parasites; assay: P. falciparum growth inhibition assay, 1-cycle (72 h treatment), SYBR DNA staining (library screen at 2 μg/mL and dose-response); type: cell-based, Plasmodium falciparum
[3] = system: T. gondii RH strain (RH-Tub-eYFP) tachyzoites; assay: microbe, parasite or virus in culture; type: cell-based, Toxoplasma gondii; details: 72 h; for percent parasite growth at 2 µg/mL: Toxoplasma gondii
[4] = library screen at 2 μg/mL, 120 h, % growth, replicate 2
[5] = library screen at 2 μg/mL, 72 h, % growth, replicate 1
[6] = library screen at 2 μg/mL, 72 h, % growth, replicate 2
[7] = library screen at 2 μg/mL, % growth, replicate 1
[8] = library screen at 2 μg/mL, % growth, replicate 2
[9] = Plasmodium falciparum, 3D7, library screen at 2 μg/mL, 120 h, % growth, replicate 1, read-out: Pf_120h_%Growth_Rep1
[10] = Plasmodium falciparum, 3D7, library screen at 2 μg/mL, 120 h, % growth, replicate 2, read-out: Pf_120h_%Growth_Rep2
[11] = Plasmodium falciparum, 3D7, library screen at 2 μg/mL, 72 h, % growth, replicate 1, read-out: Pf_72h_%Growth_Rep1
[12] = Plasmodium falciparum, 3D7, library screen at 2 μg/mL, 72 h, % growth, replicate 2, read-out: Pf_72h_%Growth_Rep2
[13] = library screen at 2 μg/mL, % growth, replicate 1, read-out: Tg_72h_%Growth_Rep1
[14] = library screen at 2 μg/mL, % growth, replicate 2, read-out: Tg_72h_%Growth_Rep2
[15] = Plasmodium falciparum, 3D7, P. falciparum, 120 h, screen at 2 μg/mL, replicate 1, read-out: Pf_120h_%Growth_Rep1
[16] = Plasmodium falciparum, 3D7, P. falciparum, 120 h, screen at 2 μg/mL, replicate 2, read-out: Pf_120h_%Growth_Rep2
[17] = Plasmodium falciparum, 3D7, P. falciparum, 72 h, screen at 2 μg/mL, replicate 1, read-out: Pf_72h_%Growth_Rep1
[18] = Plasmodium falciparum, 3D7, P. falciparum, 72 h, screen at 2 μg/mL, replicate 2, read-out: Pf_72h_%Growth_Rep2
[19] = T. gondii, screen at 2 μg/mL, replicate 1, read-out: Tg_72h_%Growth_Rep1
[20] = T. gondii, screen at 2 μg/mL, replicate 2, read-out: Tg_72h_%Growth_Rep2

Structure (SMILES): CO[C@H]1[C@@H](OC)C[C@H](C)[C@@H](OC)c2cc(O)cc(c2O)NC(=O)/C(C)=C/C=C\[C@H](OC)[C@@H](OC(N)=O)/C(C)=C/[C@@H]1C [TAN 420E]
- Pf_120h_%Growth_Rep1 ([1]; P. falciparum, 120 h, parasite screen 2 μg/mL, % growth, replicate 1): 36.47%
- Pf_120h_%Growth_Rep2 ([1]; P. falciparum, 120 h, parasite screen 2 μg/mL, % growth, replicate 2): 7.03%
- Pf_72h_%Growth_Rep1 ([2]; P. falciparum, 72 h, parasite screen 2 μg/mL, % growth, replicate 1): 3.51%
- Pf_72h_%Growth_Rep2 ([2]; P. falciparum, 72 h, parasite screen 2 μg/mL, % growth, replicate 2): -0.34%
- Tg_72h_%Growth_Rep1 ([3]; T. gondii, parasite screen 2 μg/mL, % growth, replicate 1): 60.21%
- Tg_72h_%Growth_Rep2 ([3]; T. gondii, parasite screen 2 μg/mL, % growth, replicate 2): 64.79%

Structure (SMILES): O=C1c2c(O)cc(O)cc2OC1(O)Cc1ccc(O)c(O)c1 (stereo not drawn) [Alphitonin]
- Pf_120h_%Growth_Rep1 [1]: 96.34%
- Pf_120h_%Growth_Rep2 [1, 4]: 94.83%
- Pf_72h_%Growth_Rep1 [2, 5]: 88.31%
- Pf_72h_%Growth_Rep2 [2, 6]: 93.84%
- Tg_72h_%Growth_Rep1 [3, 7]: 106.55%
- Tg_72h_%Growth_Rep2 [3, 8]: 96.34%

Structure (SMILES): CO[C@H]1C[C@@H]2CC[C@@H](C)[C@@](O)(O2)C(=O)C(=O)N2CCCC[C@H]2C(=O)O[C@H]([C@H](C)C[C@@H]2CC[C@@H](OCCO)[C@H](OC)C2)CC(=O)[C@H](C)/C=C(\C)[C@@H](O)[C@@H](OC)C(=O)[C@H](C)C[C@H](C)/C=C/C=C/C=C/1C [Everolimus]
- activity at 2 µg/mL [1, 9]: 72.3%
- activity at 2 µg/mL [1, 10]: 69.3%
- activity at 2 µg/mL [2, 11]: 71.5%
- activity at 2 µg/mL [2, 12]: 67.8%
- percent parasite growth at 2 µg/mL [3, 13]: 40.6%
- percent parasite growth at 2 µg/mL [3, 14]: 79.1%

Structure (SMILES): C=C1CCO[C@]2([C@@H](O)[C@@](C)(O)CO)NC(=O)[C@@]1(O)NC2=O [Bicyclomycin]
- activity at 2 µg/mL [1, 9]: 102%
- activity at 2 µg/mL [1, 10]: 86.7%
- activity at 2 µg/mL [2, 11]: 82.6%
- activity at 2 µg/mL [2, 12]: 88%
- percent parasite growth at 2 µg/mL [3, 13]: 126%
- percent parasite growth at 2 µg/mL [3, 14]: 100%

Structure (SMILES): C=C(NC(=O)C(=C)NC(=O)c1ccc2c(n1)-c1coc(n1)C(=C)NC(=O)C(=C)NC(=O)c1nc(oc1C)C(=C)NC(=O)C(C(C)(C)O)NC(=O)C(=C)NC(=O)c1coc(n1)/C(=C/C)NC(=O)[C@H]([C@@H](C)O)NC(=O)c1csc-2n1)C(N)=O (stereo partly drawn) [Geninthiocin]
- Pf_120h_%Growth_Rep1 ([1]; library screen at 2 μg/mL, 120 h, % growth, replicate 1): 87.82%
- Pf_120h_%Growth_Rep2 [1, 4]: 106.01%
- Pf_72h_%Growth_Rep1 [2, 5]: 87.80%
- Pf_72h_%Growth_Rep2 [2, 6]: 33.98%
- Tg_72h_%Growth_Rep1 [3, 7]: 124.28%
- Tg_72h_%Growth_Rep2 [3, 8]: 90.80%

Structure (SMILES): C[C@@H](O)[C@H]1C(=O)N2C(C(=O)O)=C(S[C@@H]3CN[C@H](CNS(N)(=O)=O)C3)[C@H](C)[C@H]12 [Doripenem]
- activity at 2 µg/mL [1, 9]: 85.1%
- activity at 2 µg/mL [1, 10]: 121%
- activity at 2 µg/mL [2, 11]: 81.9%
- activity at 2 µg/mL [2, 12]: 66.8%
- percent parasite growth at 2 µg/mL [3, 13]: 119%
- percent parasite growth at 2 µg/mL [3, 14]: 89.3%

Structure (SMILES): CC(=O)c1c(O)c(C(C)=O)c(O)c(C(C)=O)c1O [Triacetylphloroglucinol]
- Pf_120h_%Growth_Rep1 ([1]; P. falciparum, 120 h, screen at 2 μg/mL, replicate 1): 80.17%
- Pf_120h_%Growth_Rep2 ([1]; P. falciparum, 120 h, screen at 2 μg/mL, replicate 2): 112.26%
- Pf_72h_%Growth_Rep1 ([2]; P. falciparum, 72 h, screen at 2 μg/mL, replicate 1): 83.84%
- Pf_72h_%Growth_Rep2 ([2]; P. falciparum, 72 h, screen at 2 μg/mL, replicate 2): 50.48%
- Tg_72h_%Growth_Rep1 ([3]; T. gondii, screen at 2 μg/mL, replicate 1): 132.07%
- Tg_72h_%Growth_Rep2 ([3]; T. gondii, screen at 2 μg/mL, replicate 2): 93.42%

Structure (SMILES): CCCCCCCCCCC[C@@H](C[C@@H]1OC(=O)[C@H]1CCCCCC)OC(=O)[C@H](CC(C)C)NC=O [Tetrahydrolipstatin]
- activity at 2 µg/mL [1, 15]: 171%
- activity at 2 µg/mL [1, 16]: 93.3%
- activity at 2 µg/mL [2, 17]: 74.2%
- activity at 2 µg/mL [2, 18]: 88.8%
- percent parasite growth at 2 µg/mL [3, 19]: 88.5%
- percent parasite growth at 2 µg/mL [3, 20]: 98.4%

Structure (SMILES): CS(=O)(=O)c1ccc([C@@H](O)[C@@H](CO)NC(=O)C(Cl)Cl)cc1 [Thiamphenicol, reference compound]
- 3) Fold change (72 h/120 h) ([1]; P. falciparum, growth at 72 h / growth at 120 h, 2 μg/mL): 2.5
- activity at 2 µg/mL ([1]; Plasmodium falciparum, 3D7; P. falciparum, 2 μg/mL, 120 h; read-out: 2) Growth (%) at 120 h): 19.8%
- activity at 2 µg/mL [1, 15]: 27.2%
- activity at 2 µg/mL [1, 16]: 12.3%
- activity at 2 µg/mL ([2]; Plasmodium falciparum, 3D7; P. falciparum, 2 μg/mL, 72 h; read-out: 1) Growth (%) at 72 h): 49.5%
- activity at 2 µg/mL [2, 17]: 37.6%
- activity at 2 µg/mL [2, 18]: 61.4%
- percent parasite growth at 2 µg/mL [3, 19]: 106%
- percent parasite growth at 2 µg/mL [3, 20]: 98%
